Source: patent publication US5770573A, “CS-1 peptidomimetics, compositions and methods of using the same” (Cytel Corporation, priority 1995, dated 1998)
Square brackets hold non-standard residues; d marks the D form. Peptide text beside a SMILES is read from it. * marks the point of attachment. PhAc = O=C(Cc1ccccc1)*

Key:
[1] = molecular target: VLA-4 (Homo sapiens, UniProt P05556+P13612); experiment: In vitro binding inhibition of 51Cr-labeled Jurkat cells to solid phase-bound CS-1 compound (SEQ ID NO:1); type: cell-based; parameters: inflammatory cells that contain the VLA-4 receptor [Jurkat cells; host or cells: Jurkat (human T lymphoblastic line)
Procedure, shortened: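 51Cr-labeled human Jurkat cells were preincubated with compound 30 min at about 22° C, then allowed to bind to wells coated with CS-1 peptide or CS-1-OVA for 30 min at 37° C. After washing, bound cells were lysed with SDS and counted. IC50 is the concentration halving binding, normalized to SEQ ID NO: 3.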

[2] = system: delayed-type hypersensitivity murine model; experiment: Adoptive transfer delayed type hypersensitivity in mice (oxazolone); type: in vivo, mouse; conditions: 6 mg/kg/day s.c. by implanted pump for 24 hours; versus saline
Procedure: An adoptive transfer delayed-type hypersensitivity murine model has been developed using splenic T cells primed to oxazolone. This model is described in Elices et al., Clin. Exp. Rheum., 11 (Suppl. 8):577-580 (1993), whose procedures were followed here.
Thus, BALB/c mice were shaved on the belly and painted (50 μl on the belly and 5 μl on each paw) with three percent oxazolone in acetone/olive oil (4:1) at days zero and 1. At day 5, the mice were sacrificed, their spleens removed, and splenic T cells were obtained via nylon wool columns.
Normal saline or saline containing 25×10^6 /animal of the oxazolone-immune T cells were separately injected into naive mice. The mice were then challenged by painting 10 μl of 2 percent oxazolone onto one ear each. All procedures were carried out under sterile conditions and in endotoxin-free buffers.
Prior to challenge or saline injection, the mice were implanted with pumps that subcutaneously administered normal saline, normal saline containing the compound, Compound ID No. 896.52, N-phenylacetyl-Leu-Asp-Phe-D-Pro-NH2, or normal saline containing a compound with a scrambled sequence continually at 6 mg/kg/day for a 24-hour time period. The swelling diameter at the site of challenge or saline injection was measured with a microcaliper 24 hours thereafter.
An expanded study was carried out as described above except that a scrambled compound control was not used as a control for further inhibitor compounds of Table 1 with larger groups of mice. Statistical analyses were carried out versus injection of vehicle alone.

Chain of VLA-4 (P13612 34-1032): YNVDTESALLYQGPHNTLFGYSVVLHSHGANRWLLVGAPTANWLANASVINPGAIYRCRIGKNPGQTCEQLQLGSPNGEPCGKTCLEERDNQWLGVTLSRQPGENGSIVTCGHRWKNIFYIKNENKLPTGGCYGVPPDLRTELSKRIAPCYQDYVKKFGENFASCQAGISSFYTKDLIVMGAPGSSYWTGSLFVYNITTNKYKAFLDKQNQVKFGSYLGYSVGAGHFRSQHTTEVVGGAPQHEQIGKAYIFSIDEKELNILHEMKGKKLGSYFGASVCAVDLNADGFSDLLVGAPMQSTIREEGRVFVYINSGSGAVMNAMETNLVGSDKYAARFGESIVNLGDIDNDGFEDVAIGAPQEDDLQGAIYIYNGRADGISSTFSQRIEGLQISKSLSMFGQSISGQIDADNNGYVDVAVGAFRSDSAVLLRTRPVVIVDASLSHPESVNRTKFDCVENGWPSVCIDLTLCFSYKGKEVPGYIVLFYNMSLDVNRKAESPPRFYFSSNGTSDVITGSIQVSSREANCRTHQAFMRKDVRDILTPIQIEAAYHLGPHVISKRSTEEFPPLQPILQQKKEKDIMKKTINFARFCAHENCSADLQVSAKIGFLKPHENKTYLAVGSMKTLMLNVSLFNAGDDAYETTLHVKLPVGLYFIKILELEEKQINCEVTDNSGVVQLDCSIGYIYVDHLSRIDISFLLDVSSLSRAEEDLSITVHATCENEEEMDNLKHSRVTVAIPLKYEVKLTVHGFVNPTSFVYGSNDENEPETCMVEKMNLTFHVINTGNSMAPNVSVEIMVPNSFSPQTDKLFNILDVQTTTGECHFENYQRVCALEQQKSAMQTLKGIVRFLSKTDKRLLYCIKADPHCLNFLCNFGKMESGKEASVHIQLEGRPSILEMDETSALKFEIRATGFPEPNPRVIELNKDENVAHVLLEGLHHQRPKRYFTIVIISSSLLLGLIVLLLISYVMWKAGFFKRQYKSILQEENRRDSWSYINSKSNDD
Chain of VLA-4 (P05556 21-798): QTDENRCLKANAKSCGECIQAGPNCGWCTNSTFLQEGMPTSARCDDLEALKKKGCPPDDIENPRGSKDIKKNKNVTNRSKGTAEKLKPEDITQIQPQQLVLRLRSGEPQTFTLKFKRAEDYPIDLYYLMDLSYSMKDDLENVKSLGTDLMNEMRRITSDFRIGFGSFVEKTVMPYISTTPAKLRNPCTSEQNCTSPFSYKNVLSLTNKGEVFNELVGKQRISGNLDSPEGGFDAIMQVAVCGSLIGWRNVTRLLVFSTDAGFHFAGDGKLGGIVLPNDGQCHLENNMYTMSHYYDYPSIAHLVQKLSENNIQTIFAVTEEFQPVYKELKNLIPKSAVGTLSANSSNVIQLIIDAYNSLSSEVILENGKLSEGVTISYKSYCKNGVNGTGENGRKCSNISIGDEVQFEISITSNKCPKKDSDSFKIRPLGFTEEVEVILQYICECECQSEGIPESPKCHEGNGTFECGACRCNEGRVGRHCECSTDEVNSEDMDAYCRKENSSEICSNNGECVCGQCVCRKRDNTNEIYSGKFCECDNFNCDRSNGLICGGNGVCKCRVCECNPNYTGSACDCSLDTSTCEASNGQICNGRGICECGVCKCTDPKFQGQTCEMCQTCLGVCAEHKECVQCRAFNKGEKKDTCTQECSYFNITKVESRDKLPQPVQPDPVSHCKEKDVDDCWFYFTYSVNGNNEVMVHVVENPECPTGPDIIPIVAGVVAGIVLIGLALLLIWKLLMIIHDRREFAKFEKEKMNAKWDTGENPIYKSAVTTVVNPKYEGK

CC(C)C[C@H](NC(=O)[C@H](CC(=O)O)NC(=O)Cc1ccccc1)C(=O)N[C@@H](Cc1ccccc1)C(=O)N1CCC[C@@H]1C(N)=O [Compound ID No. 1066.02, N-phenylacetyl-Asp-Leu-Phe-D-Pro-NH2, reference compound] (PhAc-DLF[dP]-NH2)
Relative Potency ([1]; binding inhibition potency relative to standard compound of SEQ ID NO:3 = 1 (normalized IC50), about one-tenth or less assigned zero): 0
VLA-4 binding inhibition compared in words ([1]; compared with standard 10-mer of SEQ ID NO:3): no inhibition of VLA-4
swelling at challenge site (initial study, FIG. 5) [2]: no reduction of inflammation
